Holding throughout (assay): microbe, parasite or virus in culture
What all share (type): cell-based, M. tuberculosis
What all share (details): Mycobacterium tuberculosis

For experiment [1], the system named is Fluoroquinolone-resistant Mtb.
Experiment [2] concerns Isoniazid-resistant Mtb strain 1.
Experiment [3] has as its system Isoniazid-resistant Mtb strain 2.
The subject of experiment [4] is Rifampin-resistant Mtb strain 1.
The subject of experiment [5] is Rifampin-resistant Mtb strain 2.

The values that follow come from publication PMC6158578, “Optimization and Lead Selection of Benzothiazole Amide Analogs Toward a Novel Antimycobacterial Agent” (Frontiers in Microbiology, 2018).

SMILES strings stand for the structures. In brackets after ≈: the same amount, converted by molar mass.

For the molecule `CC12CC3CC(C)(C1)CC(C(=O)Nc1nc4ccc(OC(F)(F)F)cc4s1)(C3)C2` [CRS400226], the IC90 was 3.7 µg/mL (≈ 8.72 µM) in experiment [1]; 3.9 µg/mL (≈ 9.19 µM) in experiment [2]; 4.2 µg/mL (≈ 9.89 µM) in experiment [3]; 3.9 µg/mL (≈ 9.19 µM) in experiment [4]; 4.7 µg/mL (≈ 11.1 µM) in experiment [5].

One may read the IC90 as the concentration needed for an effect of 90%.
